The source of these data is US20230330254A1 (Regeneron Pharmaceuticals, Inc., priority 2022, published 2023).

Where two headings read alike, the source gives them in different places. Some results are limits rather than exact numbers.

Data set [1] is described as follows: Plasma stability of payloads and linker-payloads, monkey plasma. The class given is in vitro ADME. The settings on record: pooled plasma. The method, then: The plasma stability of payloads and linker payloads of the disclosure were measured. For the assay, pooled frozen plasma (human, mouse or monkey) was thawed in cold water or a 37° C. water bath prior to experiment. Plasma was centrifuged at 4000 rpm for 5 min if any clots were observed, they were subsequently removed. If required, the pH was adjusted to 7.4±0.1. For the preparation of compounds and positive controls, a 1 mM intermediate solution was prepared by diluting 10 μL of their stock solution with 90 μL DMSO; a 1 mM intermediate solution of the positive control (Propantheline) was prepared by diluting 10 μL of its stock solution with 90 μL ultrapure water. Subsequently, 100 μM dosing solution for each compound was prepared by diluting 20 μL of the intermediate solution (1 mM) with 180 μL 45% MeOH/H2O. 98 μL of plasma was spiked with 2 μL of dosing solution (100 μM) to achieve the final concentration of 2 μM in duplicate. Samples were then incubated at 37° C. in a water bath. […] At each time point, 400 μL of stop solution (200 ng/mL tolbutamide plus 200 ng/mL labetalol in 50% ACN/MeOH) was added to precipitate protein and mixed thoroughly. Sample plates were then centrifuged at 4,000 rpm for 10 min. An aliquot of supernatant (50 μL) was transferred from each well and mixed with 100 μL ultrapure water. The samples were then shaken at 800 rpm for approximately 10 min before submitting for LC-MS/MS analysis.

The target in data set [2] is T1, human glucagon-like peptide 2 receptor (GLP2R) (Homo sapiens, UniProt O95838).
T1 construct: full-length human GLP1R, cynomolgus GLP1R, human glucagon receptor (GCGR), human glucagon-like peptide 2 receptor (GLP2R); expressed in transfected cells; host or cells: HEK293/CRE-Luc
T1 sequence (O95838 1-553): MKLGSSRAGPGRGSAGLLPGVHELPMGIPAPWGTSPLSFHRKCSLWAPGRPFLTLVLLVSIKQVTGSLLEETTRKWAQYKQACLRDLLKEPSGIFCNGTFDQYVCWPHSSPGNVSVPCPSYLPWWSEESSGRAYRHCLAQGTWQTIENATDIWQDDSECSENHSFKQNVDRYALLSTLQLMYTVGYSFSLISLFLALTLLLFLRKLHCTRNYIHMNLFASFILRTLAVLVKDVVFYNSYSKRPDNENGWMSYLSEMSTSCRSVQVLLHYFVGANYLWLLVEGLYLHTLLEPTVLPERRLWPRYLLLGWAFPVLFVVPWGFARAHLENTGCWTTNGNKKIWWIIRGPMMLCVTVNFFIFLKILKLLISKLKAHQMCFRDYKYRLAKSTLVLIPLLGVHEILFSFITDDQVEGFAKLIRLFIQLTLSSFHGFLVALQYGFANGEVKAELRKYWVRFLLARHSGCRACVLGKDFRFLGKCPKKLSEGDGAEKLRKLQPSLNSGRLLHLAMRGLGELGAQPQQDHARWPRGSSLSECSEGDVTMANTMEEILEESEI
Kind of data set: CRE-luciferase reporter assay, HEK293/Myc-hGLP2R/Cre-Luc (Example 9). The format is cell-based. As to conditions: Table 5C. The method, then:
To test the activity of GLP1R agonist payloads and GLP1R agonist linker-payloads (LPs) in vitro, a cell-based cAMP responsive luciferase reporter assay was developed.
Cells were incubated overnight at 37° C. in 5% CO2. […] Plates were incubated for 5.5 h at 37° C. in 5% CO2. For end-point measurement, 100 μL/well of One-Glo reagent (Promega, #E6051) was added and plates were kept at room temperature for 5-10 minutes. Luciferase activity was measured on Envision Multilabel Plate Reader (Perkin Elmer) in Luminescent mode. The relative light units (RLU) values were obtained and the results were analyzed using nonlinear regression with GraphPad Prism software (GraphPad).
A general note: Reporter assays use an easily measured gene product as a stand-in for the process of interest.

Data set [3] deals with T2, human gastric inhibitory polypeptide receptor (GIPR) (Homo sapiens, UniProt P48546).
T2 sequence (P48546 22-466): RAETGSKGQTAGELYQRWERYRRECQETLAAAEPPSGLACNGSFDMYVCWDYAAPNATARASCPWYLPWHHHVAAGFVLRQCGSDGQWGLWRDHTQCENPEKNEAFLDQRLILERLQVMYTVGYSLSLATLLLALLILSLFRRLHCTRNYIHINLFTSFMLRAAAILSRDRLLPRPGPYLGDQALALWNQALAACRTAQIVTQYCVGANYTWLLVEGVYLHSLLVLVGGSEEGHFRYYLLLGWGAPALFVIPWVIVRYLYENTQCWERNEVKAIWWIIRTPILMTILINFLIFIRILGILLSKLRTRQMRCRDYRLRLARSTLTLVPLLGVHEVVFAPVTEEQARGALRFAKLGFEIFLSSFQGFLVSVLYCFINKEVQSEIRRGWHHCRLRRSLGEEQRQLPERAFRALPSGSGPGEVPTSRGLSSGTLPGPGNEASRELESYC
Put plainly: Luciferase reporter assay, HEK293/CRE-Luc/hGIPR (Example 17). The settings on record: Table 28; CRE-dependent luciferase reporter activity; read-out: HEK293/CRE-Luc/hGlPR EC50. The class given is cell-based. Further details: expressed in transfected cells; host or cells: HEK293/CRE-Luc. The text has this: To test the activity of GLP1R agonist payloads, GLP1R agonist linker-payloads (LPs), and anti-GLP1R antibody tethered drug conjugates (ATDCs) of the invention, a cell-based cAMP responsive luciferase reporter assay was developed. To generate the assay cell line, the firefly luciferase gene was placed under the control of a cAMP response element (CRE) located upstream of a minimal promoter and transfected into HEK293 cells and referred to herein as HEK293/CRE-Luc cells.
Three-fold serial dilutions of free payloads or LPs were prepared in 100% DMSO, transferred to fresh assay media, and added to the cells at a final constant DMSO concentration of 0.2%. The last well in the plate served as a blank control containing only the assay media and 0.2% DMSO (untreated well) and was plotted as a continuation of the 3-fold serial dilution. Four to six hours later, luciferase activity was determined after the addition of One-Glo™ reagent (Promega, Cat #E6130) to each well. Relative light units (RLUs) were measured on an Envision luminometer (PerkinElmer) and EC50 values were determined using a four-parameter logistic equation over a 12-point dose response curve (GraphPad Prism). The signal to noise (S/N) was determined by taking the ratio of the highest RLU on the dose response curve to the RLU in the untreated wells. […]

Data set [4] concerns the target T1, human glucagon-like peptide 2 receptor (GLP2R). Kind of data set: Luciferase reporter assay, HEK293/CRE-Luc/hGLP2R (Example 17). The class given is cell-based. The settings on record: Table 28; CRE-dependent luciferase reporter activity.

`CCc1cc(OCCCCn2cc(COCCOCCOCCOCCOCCOCCOCCOCCN)nn2)ccc1-c1ccc(C[C@H](NC(=O)[C@H](CC(=O)O)NC(=O)[C@H](CO)NC(=O)[C@@H](NC(=O)C(C)(Cc2ccccc2F)NC(=O)[C@@H](NC(=O)CNC(=O)[C@H](Cc2nn[nH]n2)NC(=O)C(C)(C)C(=O)NCCc2cnc[nH]2)[C@@H](C)O)[C@@H](C)O)C(=O)N[C@@H](CCCc2cc(C)cc(C)c2)C(N)=O)cc1` (stereo partly drawn) [LP11, NH2-PEG8-triazole-P8]: the half-life at 2 µM in data set [1] (pH 7.4, Monkey, assay time 3 days, Table 5B, read-out: plasma stability T½) is > 49.4 h; in data set [1] (pH 7.4, Table 5A, monkey plasma, tested time C (3 days), read-out: plasma stability T½ (hr), monkey), > 49.4 h; in data set [1] (pH 7.4, Table 5C, read-out: Plasma Stability Monkey T1/2) it was > 48 h. Besides, the “GLP2R EC50 (nM)” value in data set [2] was “Completely inactive”.

On to `CCc1cc(OCCCCn2cc(COCCOCCOCCOCCOCCOCCOCCOCCN)nn2)ccc1-c1ccc(C[C@H](NC(=O)[C@H](CC(=O)O)NC(=O)[C@H](CO)NC(=O)[C@@H](NC(=O)[C@](C)(Cc2ccccc2F)NC(=O)[C@@H](NC(=O)CNC(=O)[C@H](Cc2nn[nH]n2)NC(=O)C(C)(C)C(=O)NCCc2cnc[nH]2)[C@@H](C)O)[C@@H](C)O)C(=O)N[C@@H](CCCc2cc(C)cc(C)c2)C(N)=O)cc1` [M3190], for which the EC50 in data set [3] and in data set [4] was > 200 nM in each case.
